# Results reported in patent US20090247602A1, “COSMETIC USE OF CONJUGATED COMPOUNDS OF INDOLIC AUXINS” (EXSYMOL S.A.M., priority 2008, published 2009).
# System: sensory neurons from explants of rachidian ganglia of rat embryos
# Test: Neurotrophic activity test: neurite outgrowth of dissociated sensory neurons
# Format: cell-based
# Conditions: 72 hours incubation; for % compared to the control: control = case 1
# Excerpt: In other respects, and forming the basis of the present invention, it has been discovered for a very small panel of structures limited to the only conjugates of aspartic and glutamic acids, an unexpected property that is a said-neurotrophic activity. This activity is also found in a class of endogenous proteins, the neurotrophins, and in particular in the “NGF” (or “nerve growth factor”), an essential growth and survival factor in the formation and the maintenance of the cutaneous nervous network (M. Bothwell, J. Invest. Dermatol. Symposium Proceedings (1997), vol. 2, pp. 27-30). This remarkable activity, without any connection with antioxidant properties of these compounds, has been evidenced through an in vitro test that consists in measuring the neurites outgrowth kinetics from rat embryos sensory neurons selected for their physiology very similar to the one of human sensory neurons.
# Test: Evidence of the Neurotrophic Activity of Aminoacid Conjugates of Indolic Auxins
# The experimental study has been achieved on dissociated sensory neurons from explants of rachidian ganglia of rat embryos, and prepared according to the method described by Hall A. K. and al (J. Neurosci. (1997), vol. 17, pp. 2775-2784). After dissection and dissociation, sensory neurons are at once incubated in the following culture media (in hexaplicate), according to three situations: • case 1: culture medium without NGF, and without active ingredient according to the invention (control) • case 2: culture medium without NGF, with an active ingredient according to the invention • case 3: culture medium with NGF (positive reference)
# After an incubation time of 72 hours, cells are washed and fixed. They are then labelled by an anti β-tubulin antibody reacting with cellular bodies and outgrowths of neurons. After a disclosure with an Alexa Fluor 488 secondary antibody, colour picture inputs were proceeded (using “In Cell Analyzer 1000™”). These digital data are then used for measuring a relative density of neurite length compared to the non treated control (case 1).
# The neurotrophic effect of tested compounds is expressed by an increase (in μm) of this density of neurite outgrowth of neurons, synonymous with a strengthended development kinetic of neuronal network and a better viability (survival) of this latter.
# [1] = 0.12 mg/ml, medium without NGF (case 2)
# [2] = 5.10^−6 mg/ml, medium with NGF (case 3, positive reference)
Molecule,Average density of neurite outgrowth of sensory neurons [1] [μm],% compared to the control [1] [%],Average density of neurite outgrowth of sensory neurons [2] [μm],% compared to the control [2] [%]
O=C(O)C[C@H](NC(=O)CCc1c[nH]c2ccccc12)C(=O)O [IPA-Asp],6980,111,,
"O=C(O)C[C@H](NC(=O)CCCc1c[nH]c2ccccc12)C(=O)O [IBA-Asp, indolyl-3-butyrylaspartic acid]",8297,132,,
"NGF: nerve growth factor, a neurotrophin; positive reference (case 3)",,,11750,187
"O=C(O)CC[C@H](NC(=O)Cc1c[nH]c2ccccc12)C(=O)O [IAA-Glu, indolyl-3-acetylglutamic acid]",7335,117,,
O=C(O)C[C@H](NC(=O)Cc1c[nH]c2ccccc12)C(=O)O [IAA-Asp],6820,108,,
O=C(O)CC[C@H](NC(=O)CCc1c[nH]c2ccccc12)C(=O)O [IPA-Glu],8247,131,,
O=C(O)CC[C@H](NC(=O)CCCc1c[nH]c2ccccc12)C(=O)O [IBA-Glu],7195,114,,
